The results in this text go back to ChEMBL document CHEMBL1201862, “PubChem BioAssay data set” (2004).

Test systems include NCI-H23; HOP-62; HCT-116; MDA-MB-435; IGROV-1; NCI/ADR-RES; OVCAR-8; HCC 2998; SK-MEL-5; OVCAR-4; M14; HCT-15; U-251; MDA-MB-231; ACHN; SNB-75; SR; HL-60; SF-268.
Assay in all cases: NCI-60 cell line screen, 48 h

Molecules are shown by their SMILES.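 Test compounds were applied to cells in 96-well plates for 48 hours at 5 doses. GI50 = concentration required for 50% inhibition of growth.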 Calls of active or inactive are those of the source. No stated cut-off is given here; in the data, active = GI50 up to about 1.1 µM and inactive = higher.

`COc1nc2c(c(=O)n1C)N=C(c1ccc(Cl)cc1)CC(c1ccccc1)N2` (stereo unspecified): the GI50 with NCI-H23 was 25.2 µM (inactive); in the test with HOP-62, 32.1 µM (inactive); in the test on HCT-116, 22.7 µM (inactive); in the test on MDA-MB-435 it was 39 µM (inactive); with IGROV-1 it was 17.2 µM (inactive); in the test with NCI/ADR-RES it was 22.2 µM (inactive). Moreover, the GI50 in the test on OVCAR-8 was 26.8 µM (inactive); with HCC 2998, 17.7 µM (inactive); in the test on SK-MEL-5, 19.5 µM (inactive); in the test with OVCAR-4, 13.3 µM (inactive); in the test on M14 it was 32.9 µM (inactive); in the test on HCT-15, 15 µM. Further, the GI50 with U-251 is 35.1 µM (inactive); in the test with MDA-MB-231, 23.3 µM (inactive); in the test with ACHN, 20.9 µM (inactive); in the test with SNB-75, 14.3 µM (inactive); in the test with SR it was 23.7 µM (inactive).
In the case of `C=C1C(C(=O)O)C1C(=O)O` (stereo unspecified), the GI50 in the test on NCI-H23, in the test with HOP-62, in the test with HL-60, in the test on HCT-116, with IGROV-1 and in the test on OVCAR-8 was > 100 µM (inactive) in each case. Moreover, the GI50 in the test with HCC 2998 was > 100 µM (inactive); in the test on SK-MEL-5, > 100 µM (inactive); with OVCAR-4, > 100 µM (inactive); with M14, > 100 µM (inactive); in the test on HCT-15, > 100 µM; in the test on U-251, > 100 µM (inactive). Moreover, the GI50 with ACHN, with SNB-75, with SF-268 and with SR was > 100 µM (inactive) in each case.
As to `O=C1NCCS(=O)(=O)N2CCC[C@@H]12`, the GI50 with NCI-H23, in the test on HOP-62, with HL-60, in the test with HCT-116, in the test with IGROV-1 and in the test with OVCAR-8 was > 100 µM (inactive) each time. In addition, the GI50 is > 100 µM (inactive) in the test with HCC 2998; > 100 µM (inactive) with SK-MEL-5; > 100 µM (inactive) in the test with OVCAR-4; > 100 µM (inactive) with M14; > 100 µM in the test with HCT-15; > 100 µM (inactive) in the test with U-251. Further, the GI50 with ACHN, with SNB-75, in the test with SF-268 and in the test with SR was > 100 µM (inactive) in each case.
`COc1ccc2c(c1)CCN1C3=C(CCC3)C(=O)C[C@@H]21`: the GI50 in the test with NCI-H23 was > 100 µM (inactive); in the test with HOP-62, > 100 µM (inactive); in the test on HL-60 it was 23.2 µM (inactive); in the test with HCT-116, > 100 µM (inactive); in the test on IGROV-1, > 100 µM (inactive); with OVCAR-8, > 100 µM (inactive). The GI50 in the test on HCC 2998 is > 100 µM (inactive); in the test on SK-MEL-5, > 100 µM (inactive); in the test with OVCAR-4 it was > 100 µM (inactive); in the test with M14, > 100 µM (inactive); in the test with HCT-15 it was > 100 µM; with U-251, > 100 µM (inactive). Besides, the GI50 in the test with ACHN is > 100 µM (inactive); with SNB-75, 44.9 µM (inactive); in the test with SF-268, > 100 µM (inactive); with SR, 31.1 µM (inactive).
In the case of `CCOC(=O)C(NC(=O)c1nc[nH]c1[N+](=O)[O-])C(C)C` (stereo unspecified), the GI50 was 31.3 µM (inactive) in the test with NCI-H23; > 100 µM (inactive) in the test on HOP-62; 27.6 µM (inactive) in the test with HL-60; > 100 µM (inactive) in the test on HCT-116; > 100 µM (inactive) in the test on IGROV-1; 84.9 µM (inactive) in the test with OVCAR-8. Further, the GI50 was 66.4 µM (inactive) in the test with HCC 2998; 17.3 µM (inactive) with SK-MEL-5; > 100 µM (inactive) in the test with OVCAR-4; > 100 µM (inactive) in the test with M14; > 100 µM with HCT-15; 34.5 µM (inactive) with U-251. In addition, the GI50 was > 100 µM (inactive) in the test on ACHN, > 100 µM (inactive) in the test with SNB-75, > 100 µM (inactive) in the test with SF-268 and 61.1 µM (inactive) with SR.
As to `O=C(Nc1ccc(Cl)cc1)c1cccc([N+](=O)[O-])c1O`, the GI50 in the test on NCI-H23 was 2.43 µM (inactive); in the test on HOP-62, 1.98 µM (inactive); in the test on HL-60, 2.07 µM (inactive); with HCT-116 it was 3.94 µM (inactive); in the test with IGROV-1, 3.03 µM (inactive); in the test with OVCAR-8 it was 4.39 µM (inactive). The GI50 was 1.99 µM (inactive) in the test with HCC 2998; 1.75 µM (inactive) with SK-MEL-5; 4.07 µM (inactive) in the test with OVCAR-4; 3.63 µM (inactive) in the test with M14; 4.84 µM in the test on HCT-15; 2.7 µM (inactive) in the test on U-251. The GI50 with ACHN is 2.85 µM (inactive); in the test with SNB-75 it was 3.52 µM (inactive); in the test on SF-268 it was 4.67 µM (inactive); in the test with SR it was 4.76 µM (inactive).
Turning to `COc1ccc(/C(Cl)=C(/c2ccc(O)cc2)c2ccc(OCCN(C)C)cc2)cc1`, the GI50 in the test on NCI-H23 is 15.6 µM (inactive); in the test with HOP-62, 13.6 µM (inactive); in the test with HL-60 it was 10.2 µM (inactive); with IGROV-1 it was 16.4 µM (inactive); with OVCAR-8, 15.5 µM (inactive); in the test on HCC 2998 it was 16.7 µM (inactive). Besides, the GI50 is 4.28 µM (inactive) with SK-MEL-5; 13.9 µM (inactive) in the test with OVCAR-4; 2.1 µM (inactive) in the test on M14; 11.3 µM with HCT-15; 11.2 µM (inactive) with U-251; 14.6 µM (inactive) in the test on ACHN. Moreover, the GI50 with SNB-75 was 11 µM (inactive); in the test on SF-268, 11.8 µM (inactive); in the test with SR, 2.9 µM (inactive).
As for `COC(=O)C12C3C4C5(C(=O)OC)C(C1C35C(=O)N(C(C)C)C(C)C)C42C(=O)N(C(C)C)C(C)C` (stereo unspecified), the GI50 with NCI-H23 was > 50 µM (inactive); with HOP-62 it was > 50 µM (inactive); with HL-60, > 36.3 µM (inactive); with HCT-116, 14.7 µM (inactive); in the test with IGROV-1 it was > 50 µM (inactive); with OVCAR-8 it was > 50 µM (inactive). In addition, the GI50 in the test with HCC 2998 is > 50 µM (inactive); in the test on SK-MEL-5, > 50 µM (inactive); in the test with OVCAR-4 it was > 35.6 µM (inactive); in the test on M14 it was > 50 µM (inactive); in the test on HCT-15 it was > 23.3 µM; with U-251, > 50 µM (inactive). The GI50 in the test on ACHN is > 50 µM (inactive); in the test with SNB-75, > 35.5 µM (inactive); in the test with SF-268 it was > 50 µM (inactive); with SR, > 50 µM (inactive).
For `CC(C)(C)c1c(C(C)(C)C)c(=O)c1=O`, the GI50 in the test with NCI-H23, in the test on HOP-62, in the test on HL-60, in the test on HCT-116, in the test on MDA-MB-435 and in the test with NCI/ADR-RES was > 100 µM (inactive) throughout. Besides, the GI50 was > 100 µM (inactive) with OVCAR-8; > 100 µM (inactive) in the test on HCC 2998; > 100 µM (inactive) with SK-MEL-5; > 100 µM (inactive) in the test on OVCAR-4; > 100 µM (inactive) in the test with M14; > 100 µM in the test on HCT-15. In addition, the GI50 in the test on U-251, in the test on MDA-MB-231, in the test on ACHN, in the test with SNB-75 and with SF-268 was > 100 µM (inactive) throughout.
On to `CC(C)C1NC(=O)[C@H](C)OC(=O)[C@@H](C(C)C)NC(=O)[C@@H](C)OC(=O)C(C(C)C)NC(=O)[C@H](C)OC1=O` (stereo partly specified), for which the GI50 in the test on NCI-H23 is > 100 µM (inactive); with HOP-62, > 100 µM (inactive); in the test on HL-60 it was > 100 µM (inactive); with HCT-116, > 86.5 µM (inactive); with IGROV-1, > 100 µM (inactive); with OVCAR-8 it was > 100 µM (inactive). Further, the GI50 with HCC 2998 was > 100 µM (inactive); in the test on SK-MEL-5 it was > 100 µM (inactive); in the test on OVCAR-4, > 67.1 µM (inactive); in the test on M14, > 95.1 µM (inactive); in the test with HCT-15, 17.5 µM; in the test on U-251 it was > 68.4 µM (inactive). Moreover, the GI50 with ACHN was > 100 µM (inactive); in the test on SNB-75 it was > 100 µM (inactive); in the test with SF-268, > 100 µM (inactive); in the test on SR, 29.8 µM (inactive).
Consider `CCCN(CCC)C(=O)Cc1c2n(c3ccccc13)CCCc1ccccc1-2`, for which the GI50 in the test on NCI-H23 is 13 µM (inactive); in the test with HOP-62, 16.4 µM (inactive); in the test with HL-60 it was 15.4 µM (inactive); in the test with HCT-116 it was 13.5 µM (inactive); with OVCAR-8, 16.3 µM (inactive); in the test with HCC 2998, 13.2 µM (inactive). The GI50 was 14.3 µM (inactive) with SK-MEL-5; 13.3 µM (inactive) with OVCAR-4; 13.5 µM (inactive) with M14; 11.6 µM with HCT-15; 15.7 µM (inactive) in the test on U-251; 12.6 µM (inactive) in the test on ACHN. The figures for the GI50 in the test with SNB-75, with SF-268 and with SR were 11.9 µM (inactive), 15.1 µM (inactive) and 5.21 µM (inactive), respectively.
Take `O=c1c(O)c(-c2ccc(O)c(O)c2)oc2cc(O)cc(O)c12` [QUERCETIN]: the GI50 with HOP-62 was 46.1 µM (inactive); in the test with HL-60 it was 21 µM (inactive); in the test on HCT-116, 46.1 µM (inactive); with IGROV-1, 59.3 µM (inactive); with OVCAR-8 it was 72.6 µM (inactive); with HCC 2998, > 100 µM (inactive). Besides, the GI50 was 92 µM (inactive) in the test with SK-MEL-5; > 100 µM (inactive) in the test on OVCAR-4; > 100 µM (inactive) in the test with M14; 36.8 µM in the test on HCT-15; 49.7 µM (inactive) in the test on U-251; > 100 µM (inactive) in the test on ACHN. Further, the GI50 is 49 µM (inactive) in the test with SNB-75, 46.7 µM (inactive) with SF-268 and 35.5 µM (inactive) in the test with SR.
